Reference: article PMC6974970 (Annals of Clinical Microbiology and Antimicrobials, 2020)
“And” between values parts separate entries of the source, which are not always exact repeats. Equal entries are not always repeated. “Also recorded” adds a separate entry of the source. Where two headings read alike, the source gives them in different places.

Experiment: Pharmacokinetic monitoring of plasma LPV and RTV (HPLC/MS–MS) in TB/HIV co-infected patients on LPV/RTV plus rifabutin
Format: in vivo, human
Details: for concentration: read-out: C0 (plasma drug concentration before the morning dose); for Tmax, individual patients: unit from Table 2; for AUC(0-t): read-out: AUC0–12h; for concentration at 12 h: read-out: C12 (plasma drug concentration 12 h post-dose); for C1, individual patients: individual plasma concentration at 1 h; for C2, individual patients: individual plasma concentration at 2 h; for C3, individual patients: individual plasma concentration at 3 h; for C4, individual patients: individual plasma concentration at 4 h; for C6, individual patients: individual plasma concentration at 6 h; for C8, individual patients: individual plasma concentration at 8 h; for C12, individual patients: individual plasma concentration at 12 h; for C0, individual patients: individual plasma concentration before dose, per patient
Method: This was a pharmacokinetic study based on the use of LPV and RTV in HIV and tuberculosis co-infected adults. They were being treated with rifabutin 150 mg thrice weekly or rifabutin 300 mg thrice weekly.
The patients were participating in the RIFLOPI study registered on PACTR201310000629390. They were recruited from the Bogodogo and Kossodo district hospitals in Ouagadougou from May 2013 to December 2015. Study inclusion criteria were that the patients were between 18 and 60 years of age, HIV-1 infected with pulmonary tuberculosis confirmed or suspected. […] The 2 weeks minimum delay comes from the time frame of building up full induction effect. The participating patients were divided into two groups. The first group (RBT 150 mg thrice weekly) consisted of nine patients on antiretroviral and anti-tuberculosis treatment including LPV (LPV/RTV 400/100 mg + 2INTI) twice daily in combination with rifabutin 150 mg thrice weekly and standard ethambutol–isoniazid–pyrazinamide. The second group (RBT 300 mg thrice weekly) consisted of seven patients treated with (LPV/RTV 400/100 mg + 2INTI) twice daily in combination with rifabutin 300 mg thrice weekly and standard ethambutol–isoniazid–pyrazinamide. […] Each patient took a daily dose of cotrimoxazole to prevent opportunistic infections associated with HIV.
Pharmacokinetic monitoring was performed after 2 weeks of combined LPV/RTV and RBT treatment. On the day before pharmacokinetic monitoring, patients were admitted and fasted from midnight onwards. The pharmacokinetic assessment was conducted on a day when a dose of RBT was taken. The first measure of the pharmacokinetic monitoring (time zero) was performed on an empty stomach before taking the daily dose of RBT and LPV/RTV. After the first blood sampling, patients immediately (within 5 min) took their rifabutin and LPV/RTV regimen. Subsequent blood samples for pharmacokinetic monitoring were collected at 1, 2, 3, 4, 6, 8 and 12 h after combined drug ingestion. Breakfast (a sandwich and water) was served to the patients 2 h after drug ingestion.
Two to three millilitres of blood was collected in a heparinized primary vial and centrifuged at 3000 rpm for 10 min within 1 h of collection. The plasma was stored at − 20 °C until transportation to the laboratory for the pharmacokinetic analysis.
A high-performance liquid chromatography–mass spectrometry (HPLC/MS–MS) assay previously described by Moyer et al. was used to determine the LPV and RTV plasma concentrations at the Service of Clinical Pharmacology (IRCCS S Matteo, Pavia, Italy). The limit of quantification was 0.05 µg/mL for both drugs. The assay was validated in accordance with the European Medicines Agency (EMA) “Guidelines on bioanalytical method validation. The areas under the plasma concentration–time curve (AUC) were calculated by using the linear trapezoidal rule.
Data were entered using EpiData (http://www.epidata.dk) and Excel and analysed with Stata, version 13 (https://www.stata.com, StataCorp LP; College Station, TX, USA). Descriptive statistics were used to describe the patient’s characteristics and to calculate the frequencies, proportions and medians with interquartile intervals. Statistical comparisons were made using Fisher’s exact test with 5% set as the significance level. For the LPV and RTV pharmacokinetic profile, we determined for each patient the Cmax (peak concentration measured (µg/mL)), the Ctrough (drug plasma concentration measured just prior to administration of the drug dose (µg/mL)), the Tmax (time for Cmax), the area under the curve during a dosing interval (AUC0–12 = plasma concentration * time (µg × h/mL) and the apparent clearance (CL/F, true clearance divided by the true absolute bioavailability).

[1] = first group RBT 150 mg TPW, listed as RTV
[2] = human, plasma, oral, LPV/RTV 400/100 mg twice daily with RBT 150 mg TPW (n = 9), median and IQR
[3] = human, plasma, oral, LPV/RTV 400/100 mg twice daily with RBT 300 mg TPW (n = 7), median and IQR
[4] = second group RBT 300 mg TPW, listed as RTV

SMILES: CC(C)c1nc(CN(C)C(=O)N[C@H](C(=O)N[C@@H](Cc2ccccc2)C[C@H](O)[C@H](Cc2ccccc2)NC(=O)OCc2cncs2)C(C)C)cs1 [Ritonavir, ritonavir]
- concentration (LPV/RTV 400/100 mg twice daily with RBT 150 mg TPW (arm A, n = 9), median and IQR, plasma): 2100 ng/mL
- concentration (LPV/RTV 400/100 mg twice daily with RBT 300 mg TPW (arm B, n = 7), median and IQR, plasma): 1600 ng/mL
- AUC0–12, individual patients [1]: 10800 ng·h/mL and 23500 ng·h/mL and 14800 ng·h/mL and 7800 ng·h/mL and 8900 ng·h/mL and 12800 ng·h/mL and 12200 ng·h/mL and 18500 ng·h/mL
- Cl, individual patients [1]: 2.83 mL/min/kg and 1.3 mL/min/kg and 1.83 mL/min/kg and 4.17 mL/min/kg and 3.17 mL/min/kg and 3 mL/min/kg and 2.5 mL/min/kg
- Cmax, individual patients [1]: 3600 ng/mL and 2900 ng/mL and 1280 ng/mL and 1860 ng/mL and 2260 ng/mL and 2740 ng/mL and 3160 ng/mL
- Tmax, individual patients (first group RBT 150 mg TPW): 3 h
- Tmax, individual patients [1]: 1 h and 4 h and 6 h
- Cmax (human, plasma, oral, 150 mg, first group RBT 150 mg TPW, read-out: Cmax, individual patients): 1910 ng/mL
- AUC(0-t) [2]: 12700 ng·h/mL
- concentration at 12 h [2]: 1700 ng/mL
- Cmax (human, plasma, oral, LPV/RTV 400/100 mg twice daily with RBT 150 mg TPW (n = 9), median and IQR, read-out: Cmax): 2700 ng/mL
- Tmax [3]: 2 h
- AUC(0-t) [3]: 6600 ng·h/mL
- concentration at 12 h [3]: 600 ng/mL
- CL/F (human, plasma, oral, LPV/RTV 400/100 mg twice daily with RBT 300 mg TPW (n = 7), median and IQR, read-out: CL (apparent clearance, CL/F) (converted)): 4.83 mL/min/kg
- Cmax (human, plasma, oral, LPV/RTV 400/100 mg twice daily with RBT 300 mg TPW (n = 7), median and IQR, read-out: Cmax): 1500 ng/mL
- C1, individual patients [1]: 1.91 µg/mL and 3.8 µg/mL and 3.1 µg/mL and 0.4 µg/mL and 1.86 µg/mL and 2 µg/mL
- C1, individual patients [4]: Low and 0.37 µg/mL and 1.97 µg/mL and 2.14 µg/mL and 1.64 µg/mL and 1.5 µg/mL
- C2, individual patients [1]: 1.72 µg/mL and 3.6 µg/mL and 2.6 µg/mL and 1.7 µg/mL and 2.5 µg/mL and 2.24 µg/mL
- C2, individual patients [4]: 1 µg/mL and 0.4 µg/mL and 0.8 µg/mL and 2.22 µg/mL and 2.43 µg/mL and 1.9 µg/mL and 1.12 µg/mL
- C3, individual patients [1]: 1.65 µg/mL and 3.5 µg/mL and 2.9 µg/mL and 0.64 µg/mL and 0.4 µg/mL and 1.81 µg/mL
- C3, individual patients [4]: 1.33 µg/mL and 0.3 µg/mL and 0.8 µg/mL and 1.41 µg/mL and 2.4 µg/mL and 1.9 µg/mL and 1.2 µg/mL
- C4, individual patients [1]: 1.2 µg/mL and 2.7 µg/mL and 1.7 µg/mL and 1.28 µg/mL and 0.5 µg/mL and 2.26 µg/mL
- C4, individual patients [4]: 1.44 µg/mL and 0.38 µg/mL and 0.9 µg/mL and 0.95 µg/mL and 1.67 µg/mL and 2 µg/mL and 1 µg/mL
- C6, individual patients [1]: 1.64 µg/mL and 3.3 µg/mL and 1.5 µg/mL and 0.7 µg/mL and 1 µg/mL
- C6, individual patients [4]: 1.22 µg/mL and 0.3 µg/mL and 0.8 µg/mL and 1.45 µg/mL and 1.3 µg/mL and 2.5 µg/mL and 0.5 µg/mL
- C8, individual patients [1]: 1.24 µg/mL and 2.8 µg/mL and 1.2 µg/mL and 2.4 µg/mL and 1 µg/mL and 1.5 µg/mL
- C8, individual patients [4]: 1.1 µg/mL and 0.28 µg/mL and 0.9 µg/mL and 0.66 µg/mL and 1 µg/mL and 2 µg/mL and 0.13 µg/mL
- C12, individual patients [1]: 1.1 µg/mL and 3.6 µg/mL and 0.6 µg/mL and 0.2 µg/mL and 1.33 µg/mL and 1.7 µg/mL
- C12, individual patients [4]: 0.62 µg/mL and low and 0.6 µg/mL and 0.53 µg/mL and 0.7 µg/mL and 1.86 µg/mL and Low
- C0, individual patients [1]: 1850 ng/mL and 4110 ng/mL and 3100 ng/mL and 1200 ng/mL and 2100 ng/mL and 1430 ng/mL
- C0, individual patients [4]: below the limit of quantification and Low and 0.41 µg/mL and 0.2 µg/mL and 2.72 µg/mL and 1.84 µg/mL and 1.55 µg/mL and 2.3 µg/mL
- reduction of plasma concentrations, RBT 300 mg versus RBT 150 mg (patients receiving RBT 300 mg TPW compared to RBT 150 mg TPW, listed as RTV): nearly halved; also recorded: nearly half
- Cl, individual patients [4]: 6.5 mL/min/kg and 13.5 mL/min/kg and 9 mL/min/kg and 2.67 mL/min/kg and 3.33 mL/min/kg and 2.5 mL/min/kg and 4.83 mL/min/kg
- Tmax, individual patients [4]: 4 h and 6 h and 1 h
